The record followed here is US20240032541A1, “HERBICIDAL COMPOUNDS” (SYNGENTA CROP PROTECTION AG, priority 2020, published 2024).

Common to all, as to type: in vivo
Assay [1] has as its system Echinochloa crus-galli (ECHCG). The experiment in a line: Post-emergence herbicide glasshouse test. The note with it: post-emergence (sprayed after 8 days cultivation), 250 g/ha, evaluated after 13 days. The protocol:
(§1) Seeds of a variety of test species are sown in standard soil in pots Amaranthus retoflexus (AMARE), Echinochloa crus-galli (ECHCG), Setaria faberi (SETFA)). After cultivation for one day (pre-emergence) or after 8 days cultivation (post-emergence) under controlled conditions in a glasshouse (at 24/16° C., day/night; 14 hours light; 65% humidity), the plants are sprayed with an aqueous spray solution derived from the formulation of the technical active ingredient in acetone/water (50:50) solution containing 0.5% Tween 20 (polyoxyethelyene sorbitan monolaurate, CAS RN 9005-64-5). Compounds are applied at 250 g/ha unless otherwise stated. The test plants are then grown in a glasshouse under controlled conditions in a glasshouse (at 24/16° C., day/night; 14 hours light; 65% humidity) and watered twice daily. After 13 days for pre and post-emergence, the test is evaluated for the percentage damage caused to the plant. The biological activities are shown in the following table on a five-point scale (5=81-100%; 4=61-80%; 3=41-60%; 2=21-40%; 1=0-20%).

For assay [2], the system named is Setaria faberi (SETFA). As to the kind of experiment: Post-emergence herbicide glasshouse test. To be noted: post-emergence (sprayed after 8 days cultivation), 250 g/ha, evaluated after 13 days. The protocol:
as §1

Assay [3] concerns Amaranthus retoflexus (AMARE). As to the kind of experiment: Post-emergence herbicide glasshouse test. The note with it: post-emergence (sprayed after 8 days cultivation), 250 g/ha, evaluated after 13 days. The protocol:
as §1

Assay [4] concerns Echinochloa crus-galli (ECHCG). The experiment in a line: Pre-emergence herbicide glasshouse test. To be noted: pre-emergence (sprayed after one day cultivation), 250 g/ha, evaluated after 13 days. The protocol: as §1
Assay [5] relates to Setaria faberi (SETFA). The experiment in a line: Pre-emergence herbicide glasshouse test. To be noted: pre-emergence (sprayed after one day cultivation), 250 g/ha, evaluated after 13 days. The protocol:
as §1

Assay [6] relates to Amaranthus retoflexus (AMARE). As to the kind of experiment: Pre-emergence herbicide glasshouse test. To be noted: pre-emergence (sprayed after one day cultivation), 250 g/ha, evaluated after 13 days. The protocol: as §1

`Cc1nc(CCCC(F)(F)F)c2c(Oc3ncc(Cl)cn3)ccc(Cl)c2n1` [Compound 1.019, 8-chloro-5-(5-chloropyrimidin-2-yl)oxy-2-methyl-4-(4,4,4-trifluorobutyl)quinazoline]: the “percentage damage caused to the plant, five-point scale, ECHCG” value (shortened to “percentage damage caused … ECHCG”) in assay [1] was 3 (3=41-60%); in assay [4], 4 (4=61-80%). Also, the “percentage damage caused to the plant, five-point scale, SETFA” value (from here on “percentage damage caused … SETFA”) was 2 (2=21-40%) with Setaria faberi (SETFA) [2] and 4 (4=61-80%) in the assay on Setaria faberi (SETFA) [5]. Moreover, the “percentage damage caused to the plant, five-point scale, AMARE” value (“percentage damage caused … AMARE” for short) in assay [3] is reported as 4 (4=61-80%); in assay [6] it was 2 (2=21-40%).

In the case of `FC(F)(F)CCCc1ncnc2cccc(Oc3ncc(Cl)cn3)c12` [Compound 1.003, 5-(5-chloropyrimidin-2-yl)oxy-4-(4,4,4-trifluorobutyl)quinazoline], the “percentage damage caused … ECHCG” value in assay [1] was 3 (3=41-60%); in assay [4], 5 (5=81-100%). For the same compound, the entries for the “percentage damage caused … SETFA” value in the assay with Setaria faberi (SETFA) [2] and in the assay with Setaria faberi (SETFA) [5] were 3 (3=41-60%) and 5 (5=81-100%), respectively. The “percentage damage caused … AMARE” value in assay [3] and in assay [6] was 5 (5=81-100%) in each case.

For `FC(F)(F)CCOc1ncnc2cccc(Oc3ncc(Cl)cn3)c12` [Compound 1.008], the “percentage damage caused … ECHCG” value in assay [1] and in assay [4] was 1 (1=0-20%) each time. Moreover, the entries for the “percentage damage caused … SETFA” value in the assay with Setaria faberi (SETFA) [2] and in the assay with Setaria faberi (SETFA) [5] were 1 (1=0-20%) and 5 (5=81-100%), respectively. For the same compound, the “percentage damage caused … AMARE” value in assay [3] is reported as 3 (3=41-60%); in assay [6], 5 (5=81-100%).

As for `CCCCc1nc(C(F)(F)F)nc2cccc(Oc3ncc(Cl)cn3)c12` [Compound 1.005], the “percentage damage caused … ECHCG” value in assay [1] and in assay [4] was 5 (5=81-100%) each time. The “percentage damage caused … SETFA” value in the assay on Setaria faberi (SETFA) [2] and in the assay on Setaria faberi (SETFA) [5] was 5 (5=81-100%) each time. Besides, the “percentage damage caused … AMARE” value in assay [3] and in assay [6] was 5 (5=81-100%) each time.

`Clc1cnc(Oc2cccc3cccc(Oc4ncc(Cl)cn4)c23)nc1` [Compound 1.001, 5-CHLORO-2-[[8-(5-CHLOROPYRIMIDIN-2-YL)OXY-1-NAPHTHYL]OXY]PYRIMIDINE]: the “percentage damage caused … ECHCG” value in assay [1] is recorded as 4 (4=61-80%); in assay [4] it was 3 (3=41-60%). The “percentage damage caused … SETFA” value in the assay on Setaria faberi (SETFA) [2] and in the assay with Setaria faberi (SETFA) [5] was 4 (4=61-80%) in each case. Also, the “percentage damage caused … AMARE” value in assay [3] and in assay [6] was 3 (3=41-60%) each time.

In the case of `FC(F)(F)CCCCc1nc(C(F)(F)F)nc2cccc(Oc3ncc(Cl)cn3)c12` [Compound 1.021], the entries for the “percentage damage caused … ECHCG” value in assay [1] and in assay [4] were 4 (4=61-80%) and 5 (5=81-100%), respectively. Further, the results for the “percentage damage caused … SETFA” value with Setaria faberi (SETFA) [2] and in the assay with Setaria faberi (SETFA) [5] were 4 (4=61-80%) and 5 (5=81-100%), respectively. The “percentage damage caused … AMARE” value in assay [3] and in assay [6] was 5 (5=81-100%) throughout.

For the compound `FC(F)(F)CCCc1nccc2cccc(Oc3ncc(Cl)cn3)c12` [Compound 1.012, 8-(5-chloropyrimidin-2-yl)oxy-1-(4,4,4-trifluorobutyl)isoquinoline], the “percentage damage caused … ECHCG” value is 4 (4=61-80%) in assay [1] and 5 (5=81-100%) in assay [4]. The “percentage damage caused … SETFA” value in the assay on Setaria faberi (SETFA) [2] was 4 (4=61-80%); in the assay on Setaria faberi (SETFA) [5] it was 5 (5=81-100%). Further, the “percentage damage caused … AMARE” value in assay [3] and in assay [6] was 4 (4=61-80%) each time.

Regarding `Cc1nc(OCCC(F)(F)F)c2c(Oc3ncc(Cl)cn3)cccc2n1` [Compound 1.007], the “percentage damage caused … ECHCG” value in assay [1] and in assay [4] was 1 (1=0-20%) in each case. Further, the “percentage damage caused … SETFA” value in the assay on Setaria faberi (SETFA) [2] is recorded as 1 (1=0-20%); in the assay with Setaria faberi (SETFA) [5], 3 (3=41-60%). In addition, the “percentage damage caused … AMARE” value is reported as 3 (3=41-60%) in assay [3] and 2 (2=21-40%) in assay [6].

As to `FC(F)(F)CCOc1nc(C(F)(F)F)nc2cccc(Oc3ncc(Cl)cn3)c12` [Compound 1.006, 5-(5-chloropyrimidin-2-yl)oxy-2-(trifluoromethyl)-4-(3,3,3-trifluoropropoxy)quinazoline], the “percentage damage caused … ECHCG” value in assay [1] and in assay [4] was 3 (3=41-60%) each time. In addition, the entries for the “percentage damage caused … SETFA” value with Setaria faberi (SETFA) [2] and with Setaria faberi (SETFA) [5] were 3 (3=41-60%) and 5 (5=81-100%), respectively. The “percentage damage caused … AMARE” value in assay [3] and in assay [6] was 5 (5=81-100%) in each case.

Consider `Cc1nc2cccc(Oc3ncc(Cl)cn3)c2c(CCCC(F)(F)F)c1C#N` [Compound 1.043, 5-(5-chloropyrimidin-2-yl) oxy-2-methyl-4-(4,4,4-trifluorobutyl) quinoline-3-carbonitrile], for which the “percentage damage caused … ECHCG” value in assay [1] and in assay [4] was 1 (1=0-20%) throughout. The “percentage damage caused … SETFA” value in the assay on Setaria faberi (SETFA) [2] and in the assay on Setaria faberi (SETFA) [5] was 2 (2=21-40%) throughout. In addition, the “percentage damage caused … AMARE” value is 2 (2=21-40%) in assay [3] and 0 in assay [6].

Regarding `C=CCCc1nc(C(F)(F)F)nc2cccc(Oc3ncc(Cl)cn3)c12` [Compound 1.028, 4-but-3-enyl-5-(5-chloropyrimidin-2-yl) oxy-2 (trifluoromethyl)quinazoline], the results for the “percentage damage caused … ECHCG” value in assay [1] and in assay [4] were 4 (4=61-80%) and 5 (5=81-100%), respectively. Also, the “percentage damage caused … SETFA” value is on record as 4 (4=61-80%) in the assay with Setaria faberi (SETFA) [2] and 5 (5=81-100%) in the assay with Setaria faberi (SETFA) [5]. Further, the “percentage damage caused … AMARE” value in assay [3] is reported as 5 (5=81-100%); in assay [6], 4 (4=61-80%).

On to `Fc1cnc(Oc2cccc3nc(C(F)(F)F)nc(CCCC(F)(F)F)c23)nc1` [Compound 1.011], for which the “percentage damage caused … ECHCG” value in assay [1] and in assay [4] was 5 (5=81-100%) each time. For the same compound, the “percentage damage caused … SETFA” value in the assay on Setaria faberi (SETFA) [2] and with Setaria faberi (SETFA) [5] was 5 (5=81-100%) throughout. Further, the “percentage damage caused … AMARE” value in assay [3] and in assay [6] was 5 (5=81-100%) in each case.

Regarding `FC(F)(F)CCOc1nccc2cccc(Oc3ncc(Cl)cn3)c12` [Compound 1.009], the “percentage damage caused … ECHCG” value in assay [1] and in assay [4] was 1 (1=0-20%) throughout. The “percentage damage caused … SETFA” value in the assay on Setaria faberi (SETFA) [2] and in the assay on Setaria faberi (SETFA) [5] was 1 (1=0-20%) each time. In addition, the “percentage damage caused … AMARE” value in assay [3] and in assay [6] was 1 (1=0-20%) each time.

In the case of `CC(C)c1nc(CCCC(F)(F)F)c2c(Oc3ncc(Cl)cn3)cccc2n1` [Compound 1.050, 5-(5-chloropyrimidin-2-yl)oxy-2-isopropyl-4-(4,4,4-trifluorobutyl)quinazoline], the “percentage damage caused … ECHCG” value is on record as 2 (2=21-40%) in assay [1] and 5 (5=81-100%) in assay [4]. In addition, the “percentage damage caused … SETFA” value in the assay with Setaria faberi (SETFA) [2] is reported as 3 (3=41-60%); with Setaria faberi (SETFA) [5], 5 (5=81-100%). Also, the “percentage damage caused … AMARE” value in assay [3] and in assay [6] was 5 (5=81-100%) throughout.

In the case of `Cc1nc(CCCC(F)(F)F)c2c(Oc3ncc(Cl)cn3)cccc2n1` [Compound 1.013, 5-(5-chloropyrimidin-2-yl)oxy-2-methyl-4-(4,4,4-trifluorobutyl)quinazoline], the “percentage damage caused … ECHCG” value in assay [1] and in assay [4] was 4 (4=61-80%) each time. The results for the “percentage damage caused … SETFA” value in the assay with Setaria faberi (SETFA) [2] and in the assay on Setaria faberi (SETFA) [5] were 4 (4=61-80%) and 5 (5=81-100%), respectively. Besides, the “percentage damage caused … AMARE” value in assay [3] and in assay [6] was 3 (3=41-60%) each time.
